Key:
FR on FHs74 cells = assay: Folate receptor blocking studies in FHs74 cells; format: cell-based, human; conditions: blocking of P2Ns-NAR uptake
Description: FR Specificity to NAR. The FR-mediated transport of P2Ns-NAR was confirmed by performing blocking studies. Folic acid (FA) strongly binds to FR, with the FA frequently being employed as a targeting ligand on nanoparticles for receptor-mediated drug delivery.^29,30 On the other hand, FA in larger doses is also associated with adverse side effects including toxicity to humans.^16,31,32 The use of NAR as an FR-specific ligand could potentially overcome this limitation and provide a safer alternative for receptor-mediated drug delivery. Selective blockade of FR on FHs74 cells was performed to evaluate the FR-mediated uptake of P2Ns-NAR. Cells were saturated with varying concentrations of blocking agents: antifolate antibody (AB), FA, and MTHFA.

FHs74 cells = conditions: previous study; cited from earlier work

SMILES | Concentration of blocking agent needed for blocking levels similar to FA (FR on FHs74 cells) | Time to saturate FHs74 cells (FHs74 cells)
CN1c2c(nc(N)[nH]c2=O)NCC1CNc1ccc(C(=O)N[C@@H](CCC(=O)O)C(=O)O)cc1 (some centres unmarked) [MTHFA, methyltetrahydrofolic acid] | Higher concentrations | –
Nc1nc2ncc(CNc3ccc(C(=O)N[C@@H](CCC(=O)O)C(=O)O)cc3)nc2c(=O)[nH]1 [FA, Folic acid] | – | less than 1 hour

From US20240285575A1, “NANOPARTICLES WITH ANTI-INFLAMMATORY PROPERTIES AND ENHANCED PENETRATION ACROSS THE BIOLOGICAL BARRIERS TO DELIVER ENCAPSULATED DRUGS” (The Board of Trustees of The University of Alabama, priority 2023, published 2024)
